Assay results taken from ChEMBL document CHEMBL3217679, “Synthesis and biological activity profile of novel 2-cinnamylidene-1,3-diones related to coruscanone A: promising new antileishmanial agents” (Medchemcomm, 2012).
Activity calls are given as the source filed them. The calls are words filed in the database; no cut-off is given here.

Key:
[1] = Cytotoxicity against African green monkey Vero cells by neutral red assay; format: cell-based; conditions: chlorocebus sabaeus, read-out: TC50 (the source's name)
Leishmania donovani = assay: Antiparasitic activity against Leishmania donovani S1 promastigotes assessed as growth inhibition after 72 hrs by alamar blue assay; format: functional, organism-based; conditions: S1, 72 h
Plasmodium falciparum [2] = assay: Antiparasitic activity against chloroquine-sensitive Plasmodium falciparum D6 assessed as growth inhibition at 16 uM after 48 hrs by pLDH assay; format: functional, organism-based
Cryptococcus neoformans = assay: Antifungal activity against Cryptococcus neoformans ATCC 90113 assessed as growth inhibition after 70 to 74 hrs by modified CLSI method; format: functional, organism-based
Candida albicans = assay: Antifungal activity against Candida albicans ATCC 90028 assessed as growth inhibition after 46 to 50 hrs by modified CLSI method; format: functional, organism-based
Pichia kudriavzevii = assay: Antifungal activity against Candida krusei ATCC 6258 assessed as growth inhibition after 46 to 50 hrs by modified CLSI method; format: functional, organism-based
Aspergillus fumigatus = assay: Antifungal activity against Aspergillus fumigatus ATCC 90906 assessed as growth inhibition after 46 to 50 hrs by alamar blue assay; format: functional, organism-based
Plasmodium falciparum [3] = assay: Antiparasitic activity against chloroquine-resistant Plasmodium falciparum W2 assessed as growth inhibition at 16 uM after 48 hrs by pLDH assay; format: functional, organism-based
Nakaseomyces glabratus = assay: Antifungal activity against Candida glabrata ATCC 90030 assessed as growth inhibition after 46 to 50 hrs by modified CLSI method; format: functional, organism-based

COc1ccc(/C=C/C=C2C(=O)CCCC2=O)cc1
CC50 [1]: > 18.6 µM | IC50 (Leishmania donovani): 19.5 µM | IC90 (Leishmania donovani): 91.7 µM | growth inhibition (GI) (Plasmodium falciparum [2]): inactive | IC50 (Cryptococcus neoformans): 44.7 µM | growth inhibition (GI) (Candida albicans): inactive | IC50 (Pichia kudriavzevii): > 60 µM | growth inhibition (GI) (Aspergillus fumigatus): inactive | growth inhibition (GI) (Plasmodium falciparum [3]): inactive | IC50 (Nakaseomyces glabratus): 56 µM

N=C(N)c1ccc(OCCCCCOc2ccc(C(=N)N)cc2)cc1 [PENTAMIDINE]
IC50 (Leishmania donovani): 3.82 µM | IC90 (Leishmania donovani): 12.4 µM | growth inhibition (GI) (Candida albicans): inactive

C/C=C/C=C/C=C1C(=O)CC(C)(C)CC1=O
CC50 [1]: > 21.8 µM | IC50 (Leishmania donovani): 45.8 µM | IC90 (Leishmania donovani): > 100 µM | growth inhibition (GI) (Plasmodium falciparum [2]): inactive | IC50 (Cryptococcus neoformans): > 60 µM | growth inhibition (GI) (Candida albicans): inactive | IC50 (Pichia kudriavzevii): > 60 µM | growth inhibition (GI) (Aspergillus fumigatus): inactive | growth inhibition (GI) (Plasmodium falciparum [3]): inactive | IC50 (Nakaseomyces glabratus): > 60 µM

CC(=O)C(=C/C=C/c1ccccc1)C(C)=O
CC50 [1]: > 22.2 µM | IC50 (Leishmania donovani): 19.1 µM | IC90 (Leishmania donovani): 52.3 µM | growth inhibition (GI) (Plasmodium falciparum [2]): inactive | IC50 (Cryptococcus neoformans): > 60 µM | growth inhibition (GI) (Candida albicans): inactive | IC50 (Pichia kudriavzevii): > 60 µM | growth inhibition (GI) (Aspergillus fumigatus): inactive | growth inhibition (GI) (Plasmodium falciparum [3]): inactive | IC50 (Nakaseomyces glabratus): > 60 µM

CC1(C)CC(=O)C(=C/C=C/c2ccc(Br)cc2)C(=O)C1
CC50 [1]: > 14.3 µM | IC50 (Leishmania donovani): 9.6 µM | IC90 (Leishmania donovani): 18.6 µM | growth inhibition (GI) (Plasmodium falciparum [2]): inactive | IC50 (Cryptococcus neoformans): 24.7 µM | growth inhibition (GI) (Candida albicans): inactive | IC50 (Pichia kudriavzevii): > 60 µM | growth inhibition (GI) (Aspergillus fumigatus): inactive | growth inhibition (GI) (Plasmodium falciparum [3]): inactive | IC50 (Nakaseomyces glabratus): > 60 µM

C[C@@H]1[C@H](O)[C@@H](C)/C=C/C=C/C=C/C=C/C=C/C=C/C=C/[C@H](O[C@@H]2O[C@H](C)[C@@H](O)[C@H](N)[C@@H]2O)C[C@@H]2O[C@](O)(C[C@@H](O)C[C@@H](O)[C@H](O)CC[C@@H](O)C[C@@H](O)CC(=O)O[C@H]1C)C[C@H](O)[C@H]2C(=O)O [AMPHOTERICIN B]
CC50 [1]: 7.6 µM | IC50 (Leishmania donovani): 0.31 µM | IC90 (Leishmania donovani): 1.09 µM | IC50 (Cryptococcus neoformans): 0.35 µM | growth inhibition (GI) (Candida albicans): inactive | IC50 (Pichia kudriavzevii): 0.78 µM | IC50 (Nakaseomyces glabratus): 0.28 µM

CC(=O)/C(=C\C=C\c1ccccc1)C(=O)OC(C)(C)C
CC50 [1]: > 17.5 µM | IC50 (Leishmania donovani): 46.6 µM | IC90 (Leishmania donovani): 99.2 µM | growth inhibition (GI) (Plasmodium falciparum [2]): inactive | IC50 (Cryptococcus neoformans): > 60 µM | growth inhibition (GI) (Candida albicans): inactive | IC50 (Pichia kudriavzevii): > 60 µM | growth inhibition (GI) (Aspergillus fumigatus): inactive | growth inhibition (GI) (Plasmodium falciparum [3]): inactive | IC50 (Nakaseomyces glabratus): > 60 µM

CC1(C)CC(=O)C(=CC=C(c2ccccc2)c2ccccc2)C(=O)C1
CC50 [1]: > 14.4 µM | IC50 (Leishmania donovani): 9.38 µM | IC90 (Leishmania donovani): 26.6 µM | growth inhibition (GI) (Plasmodium falciparum [2]): inactive | IC50 (Cryptococcus neoformans): 23.6 µM | growth inhibition (GI) (Candida albicans): inactive | IC50 (Pichia kudriavzevii): > 60 µM | growth inhibition (GI) (Aspergillus fumigatus): inactive | growth inhibition (GI) (Plasmodium falciparum [3]): inactive | IC50 (Nakaseomyces glabratus): > 60 µM

C/C=C/C=C/C=C1C(=O)CCCC1=O
CC50 [1]: > 25 µM | IC50 (Leishmania donovani): 56.8 µM | IC90 (Leishmania donovani): > 100 µM | growth inhibition (GI) (Plasmodium falciparum [2]): inactive | IC50 (Cryptococcus neoformans): > 60 µM | growth inhibition (GI) (Candida albicans): inactive | IC50 (Pichia kudriavzevii): > 60 µM | growth inhibition (GI) (Aspergillus fumigatus): inactive | growth inhibition (GI) (Plasmodium falciparum [3]): inactive | IC50 (Nakaseomyces glabratus): > 60 µM

COC(/C=C/c1ccccc1)=C1\C(=O)C=C(C)C1=O [CORUSCANONE A]
CC50 [1]: 19.3 µM

O=C1CCC(=O)C1=C/C=C/c1ccc(Br)cc1
CC50 [1]: > 16.3 µM | IC50 (Leishmania donovani): 8.58 µM | IC90 (Leishmania donovani): 14.1 µM | growth inhibition (GI) (Plasmodium falciparum [2]): inactive | IC50 (Cryptococcus neoformans): 26.9 µM | growth inhibition (GI) (Candida albicans): inactive | IC50 (Pichia kudriavzevii): > 60 µM | growth inhibition (GI) (Aspergillus fumigatus): inactive | growth inhibition (GI) (Plasmodium falciparum [3]): inactive | IC50 (Nakaseomyces glabratus): > 60 µM

O=C1CCCC(=O)C1=CC=C(c1ccccc1)c1ccccc1
CC50 [1]: > 15.7 µM | IC50 (Leishmania donovani): 10.2 µM | IC90 (Leishmania donovani): 26.1 µM | growth inhibition (GI) (Plasmodium falciparum [2]): inactive | IC50 (Cryptococcus neoformans): 14.5 µM | growth inhibition (GI) (Candida albicans): inactive | IC50 (Pichia kudriavzevii): > 60 µM | growth inhibition (GI) (Aspergillus fumigatus): inactive | growth inhibition (GI) (Plasmodium falciparum [3]): inactive | IC50 (Nakaseomyces glabratus): > 60 µM

CC(=O)C(=CC=C(c1ccccc1)c1ccccc1)C(C)=O
CC50 [1]: > 16.4 µM | IC50 (Leishmania donovani): 9.29 µM | IC90 (Leishmania donovani): 66.1 µM | growth inhibition (GI) (Plasmodium falciparum [2]): inactive | IC50 (Cryptococcus neoformans): 35.3 µM | growth inhibition (GI) (Candida albicans): inactive | IC50 (Pichia kudriavzevii): > 60 µM | growth inhibition (GI) (Aspergillus fumigatus): inactive | growth inhibition (GI) (Plasmodium falciparum [3]): inactive | IC50 (Nakaseomyces glabratus): > 60 µM

COc1ccc(/C=C/C=C(C(C)=O)C(C)=O)cc1
CC50 [1]: > 19.5 µM | IC50 (Leishmania donovani): 38.5 µM | IC90 (Leishmania donovani): > 100 µM | growth inhibition (GI) (Plasmodium falciparum [2]): inactive | IC50 (Cryptococcus neoformans): > 60 µM | growth inhibition (GI) (Candida albicans): inactive | IC50 (Pichia kudriavzevii): > 60 µM | growth inhibition (GI) (Aspergillus fumigatus): inactive | growth inhibition (GI) (Plasmodium falciparum [3]): inactive | IC50 (Nakaseomyces glabratus): > 60 µM

CC1(C)CC(=O)C(=C/C=C/c2ccccc2)C(=O)C1
CC50 [1]: > 18.7 µM | IC50 (Leishmania donovani): 20.1 µM | IC90 (Leishmania donovani): 27.5 µM | growth inhibition (GI) (Plasmodium falciparum [2]): inactive | IC50 (Cryptococcus neoformans): 19 µM | growth inhibition (GI) (Candida albicans): inactive | IC50 (Pichia kudriavzevii): > 60 µM | growth inhibition (GI) (Aspergillus fumigatus): inactive | growth inhibition (GI) (Plasmodium falciparum [3]): inactive | IC50 (Nakaseomyces glabratus): 35.3 µM

CC1(C)CC(=O)C(=C/C=C/c2ccc(F)cc2)C(=O)C1
CC50 [1]: > 17.5 µM | IC50 (Leishmania donovani): 10.7 µM | IC90 (Leishmania donovani): 25 µM | growth inhibition (GI) (Plasmodium falciparum [2]): inactive | IC50 (Cryptococcus neoformans): 16.6 µM | growth inhibition (GI) (Candida albicans): inactive | IC50 (Pichia kudriavzevii): > 60 µM | growth inhibition (GI) (Aspergillus fumigatus): inactive | growth inhibition (GI) (Plasmodium falciparum [3]): inactive | IC50 (Nakaseomyces glabratus): 35.6 µM

CC(=O)C(=C/C=C/c1ccc(Br)cc1)C(C)=O
CC50 [1]: > 16.2 µM | IC50 (Leishmania donovani): 9.55 µM | IC90 (Leishmania donovani): 24.6 µM | growth inhibition (GI) (Plasmodium falciparum [2]): inactive | IC50 (Cryptococcus neoformans): 11.7 µM | growth inhibition (GI) (Candida albicans): inactive | IC50 (Pichia kudriavzevii): > 60 µM | growth inhibition (GI) (Aspergillus fumigatus): inactive | growth inhibition (GI) (Plasmodium falciparum [3]): inactive | IC50 (Nakaseomyces glabratus): > 60 µM

CC1(C)CCC(=O)/C(=C\C=C\c2ccccc2)C1=O
CC50 [1]: > 18.7 µM | IC50 (Leishmania donovani): 11.8 µM | IC90 (Leishmania donovani): 20.1 µM | growth inhibition (GI) (Plasmodium falciparum [2]): inactive | IC50 (Cryptococcus neoformans): 19.9 µM | growth inhibition (GI) (Candida albicans): inactive | IC50 (Pichia kudriavzevii): > 60 µM | growth inhibition (GI) (Aspergillus fumigatus): inactive | growth inhibition (GI) (Plasmodium falciparum [3]): inactive | IC50 (Nakaseomyces glabratus): > 60 µM

COc1ccc(/C=C/C=C2C(=O)CCC2=O)cc1
CC50 [1]: > 19.6 µM | IC50 (Leishmania donovani): 7.01 µM | IC90 (Leishmania donovani): 19.8 µM | IC50 (Cryptococcus neoformans): 13.4 µM | growth inhibition (GI) (Candida albicans): inactive | IC50 (Pichia kudriavzevii): 24.1 µM | growth inhibition (GI) (Aspergillus fumigatus): inactive | IC50 (Nakaseomyces glabratus): 35 µM

COc1ccc(/C=C/C=C2C(=O)CC(c3ccccc3)CC2=O)cc1 (centres undefined)
CC50 [1]: > 14.3 µM | IC50 (Leishmania donovani): 7.52 µM | IC90 (Leishmania donovani): 14.7 µM | growth inhibition (GI) (Plasmodium falciparum [2]): inactive | IC50 (Cryptococcus neoformans): > 60 µM | growth inhibition (GI) (Candida albicans): inactive | IC50 (Pichia kudriavzevii): > 60 µM | growth inhibition (GI) (Aspergillus fumigatus): inactive | growth inhibition (GI) (Plasmodium falciparum [3]): inactive | IC50 (Nakaseomyces glabratus): > 60 µM

COc1ccc(/C=C/C=C2C(=O)CC(C)(C)CC2=O)cc1
CC50 [1]: > 16.7 µM | IC50 (Leishmania donovani): 30.6 µM | IC90 (Leishmania donovani): 68.9 µM | growth inhibition (GI) (Plasmodium falciparum [2]): inactive | IC50 (Cryptococcus neoformans): 38.2 µM | growth inhibition (GI) (Candida albicans): inactive | IC50 (Pichia kudriavzevii): > 60 µM | growth inhibition (GI) (Aspergillus fumigatus): inactive | growth inhibition (GI) (Plasmodium falciparum [3]): inactive | IC50 (Nakaseomyces glabratus): > 60 µM

O=C1CCC(=O)C1=C/C=C/c1ccccc1
CC50 [1]: > 22.4 µM | IC50 (Leishmania donovani): 2.16 µM | IC90 (Leishmania donovani): 3.58 µM | growth inhibition (GI) (Plasmodium falciparum [2]): inactive | IC50 (Cryptococcus neoformans): 11.9 µM | growth inhibition (GI) (Candida albicans): inactive | IC50 (Pichia kudriavzevii): 42.6 µM | growth inhibition (GI) (Aspergillus fumigatus): inactive | growth inhibition (GI) (Plasmodium falciparum [3]): inactive | IC50 (Nakaseomyces glabratus): > 60 µM
